Source: US8802678B2, “Carbonylated (aza) cyclohexanes as dopamine D3 receptor ligands” (Bioprojet, priority 2006, dated 2014)

Compound	melting point [°C]
Cc1cccc(N2CCN(CC[C@H]3CC[C@H](NC(=O)C4=CCCC4)CC3)CC2)c1 [Example 380, Cyclopent-1-enecarboxylic acid {4-[2-(4-m-tolylpiperazin-1-yl)ethyl]cyclohexyl} amide]	188
Cc1ccc(N2CCN(CC[C@H]3CC[C@H](NC(=O)CCCC#N)CC3)CC2)cc1Cl [Example 381, N-(4-{2-[4-(3-Chloro-4-methylphenyl)piperazin-1-yl]ethyl}cyclohexyl)-4-cyanobutanamide]	168
COc1ccccc1N1CCN(CC[C@H]2CC[C@H](NC(=O)CCCC#N)CC2)CC1 [Example 382, 4-Cyano-N-(4-{2-[4-(2-methoxyphenyl)piperazin-1-yl]ethyl}cyclohexyl)butanamide]	147
Cc1ccc(C(F)(F)F)cc1N1CCN(CC[C@H]2CC[C@H](NC(=O)CC#N)CC2)CC1 [Example 383, 2-Cyano-N-(4-{2-[4-(2-methyl-5-trifluoromethylphenyl)piperazin-1-yl]ethyl}cyclohexyl)acetamide]	192
O=C(N[C@H]1CC[C@H](CCN2CCN(c3ccc(F)cc3F)CC2)CC1)C1=CCCC1 [Example 384, Cyclopent-1-enecarboxylic acid (4-{2-[4-(2,4-difluorphenyl)-piperazin-1-yl]ethyl}cyclohexyl) amide]	205
O=C(COc1ccc(F)cc1)N[C@H]1CC[C@H](CCN2CCN(c3ccc(F)cc3F)CC2)CC1 [Example 385, N-(4-{2-[4-(2,4-Difluorophenyl)piperazin-1-yl]ethyl}cyclohexyl)-2-(4-fluorophenoxy)acetamide]	162
O=C(CC(F)(F)F)N[C@H]1CC[C@H](CCN2CCN(c3ccc(F)cc3F)CC2)CC1 [Example 386, N-(4-{2-[4-(2,4-Difluorophenyl)piperazin-1-yl]ethyl}cyclohexyl)-3,3,3-trifluoropropanamide]	184
O=C(CC1CC=CC1)N[C@H]1CC[C@H](CCN2CCN(c3ccccc3F)CC2)CC1 [Example 387]	188
Cc1ccc(C(F)(F)F)cc1N1CCN(CC[C@H]2CC[C@H](NC(=O)CCCC#N)CC2)CC1 [Example 388, 4-Cyano-N-(4-{2-[4-(2-methyl-5-trifluoromethylphenyl)piperazin-1-yl]ethyl}cyclohexyl)butyramide]	153
Cc1cc(N2CCN(CC[C@H]3CC[C@H](NC(=O)CC#N)CC3)CC2)c(Cl)cc1F [Example 389, N-(4-{2-[4-(2-Chloro-4-fluoro-5-methylphenyl)piperazin-1-yl]ethyl}cyclohexyl)-2-cyanoacetamide]	177
Cc1cc(N2CCN(CC[C@H]3CC[C@H](NC(=O)CCCC#N)CC3)CC2)c(Cl)cc1F [Example 390]	158
COc1ccc(C)c(N2CCN(CC[C@H]3CC[C@H](NC(=O)CCCC#N)CC3)CC2)c1 [Example 391, 4-Cyano-N-(4-{2-[4-(5-methoxy-2-methylphenyl)piperazin-1-yl]ethyl}cyclohexyl)butanamide]	170
COc1cc(OC)cc(N2CCN(CC[C@H]3CC[C@H](NC(=O)CCCC#N)CC3)CC2)c1 [Example 392, 4-Cyano-N-(4-{2-[4-(3,5-dimethoxyphenyl)piperazin-1-yl]ethyl}cyclohexyl)butanamide]	147
N#CCCCC(=O)N[C@H]1CC[C@H](CCN2CCN(c3cccc(Cl)c3C#N)CC2)CC1 [Example 393, N-(4-{2-[4-(3-Chloro-2-cyanophenyl)piperazin-1-yl]ethyl}cyclohexyl)-4-cyanobutanamide]	189
O=C(N[C@H]1CC[C@H](CCN2CCN(c3cccc(F)c3)CC2)CC1)C1=CCCCC1 [Example 394]	195
N#CCCCC(=O)N[C@H]1CC[C@H](CCN2CCN(c3cccc(F)c3)CC2)CC1 [Example 395, 4-Cyano-N-(4-{2-[4-(3-fluorophenyl)piperazin-1-yl]ethyl}cyclohexyl)butanamide]	170
O=C(COc1ccccc1)N[C@H]1CC[C@H](CCN2CCN(c3cccc(F)c3)CC2)CC1 [Example 396, N-(4-{2-[4-(3-Fluorophenyl)piperazin-1-yl]ethyl}cyclohexyl)-2-phenoxyacetamide]	150
NC(=O)CCC(=O)N[C@H]1CC[C@H](CCN2CCN(c3cccc(F)c3)CC2)CC1 [Example 397, N-(4-{2-[4-(3-Fluorophenyl)-piperazin-1-yl]ethyl}cyclohexyl)-succinamide]	255
NC(=O)CCC(=O)N[C@H]1CC[C@@H](CCN2CCN(c3cccc(F)c3)CC2)CC1 [Example 398, N-(4-{2-[4-(3-Fluorophenyl)-piperazin-1-yl]ethyl}cyclohexyl)-succinamide]	169

Results, then the molecule that gave them:

melting point [°C]	Compound
202	O=C(N[C@H]1CC[C@H](CCN2CCN(c3cccc(F)c3)CC2)CC1)C1=CCCC1 [Example 400, Cyclopent-1-enecarboxylic acid (4-{2-[4-(3-fluorophenyl)-piperazin-1-yl]ethyl}cyclohexyl) amide]
167	N#CCCCC(=O)N[C@H]1CC[C@H](CCN2CCN(c3ccc(F)cc3F)CC2)CC1 [Example 401, 4-Cyano-N-(4-{2-[4-(2,4-difluorophenyl)piperazin-1-yl]ethyl}cyclohexyl)butanamide]
165	N#CCCC(=O)N[C@H]1CC[C@H](CCN2CCN(c3ccc(F)cc3F)CC2)CC1 [Example 403, 3-Cyano-N-(4-{2-[4-(2,4-difluorophenyl)piperazin-1-yl]ethyl}cyclohexyl)propanamide]
168	N#CCCCC(=O)N[C@H]1CC[C@H](CCN2CCN(c3cc(C(F)(F)F)ccc3Cl)CC2)CC1 [Example 404, N-(4-{2-[4-(2-Chloro-5-trifluoromethylphenyl)piperazin-1-yl]ethyl}cyclohexyl)-4-cyanobutanamide]
136	COc1ccc(C(F)(F)F)cc1N1CCN(CC[C@H]2CC[C@H](NC(=O)CCCC#N)CC2)CC1 [Example 405, 4-Cyano-N-(4-{2-[4-(2-methoxy-5-trifluoromethylphenyl)piperazin-1-yl]ethyl}cyclohexyl)butanamide]
242	O=C(N[C@H]1CC[C@H](CCN2CCN(c3cccc(F)c3)CC2)CC1)C1=Cc2ccccc2C1 [Example 407, 1H-Indene-2-carboxylic acid (4-{2-[4-(3-fluorophenyl)piperazin-1-yl]ethyl}cyclohexyl) amide]
215	O=C(N[C@H]1CC[C@H](CCN2CCN(c3cccc(F)c3)CC2)CC1)C1CC=CC1 [Example 408, Cyclopent-3-enecarboxylic acid (4-{2-[4-(3-fluorophenyl)-piperazin-1-yl]ethyl}cyclohexyl) amide]
195	O=C(CC(F)(F)F)N[C@H]1CC[C@H](CCN2CCN(c3cccc(F)c3)CC2)CC1 [Example 409, 3,3,3-Trifluoro-N-(4-{2-[4-(3-fluorophenyl)piperazin-1-yl]ethyl}cyclohexyl)propanamide]
118	CCN(CC)CCC(=O)N[C@H]1CC[C@H](CCN2CCN(c3cccc(F)c3)CC2)CC1 [Example 411, 3-Diethylamino-N-(4-{2-[4-(3-fluorophenyl)piperazin-1-yl]ethyl}cyclohexyl)propanamide]
186	N#CCCC(=O)N[C@H]1CC[C@H](CCN2CCN(c3cccc(F)c3)CC2)CC1 [Example 412, 3-Cyano-N-(4-{2-[4-(3-fluorophenyl)piperazin-1-yl]ethyl}cyclohexyl)propanamide]
158	Cc1ccc(C)c(N2CCN(CC[C@H]3CC[C@H](NC(=O)CCCC#N)CC3)CC2)c1 [Example 413, 4-Cyano-N-(4-{2-[4-(2,5-dimethylphenyl)piperazin-1-yl]ethyl}cyclohexyl)butanamide]
165	N#CCCCC(=O)N[C@H]1CC[C@H](CCN2CCN(c3cc(Cl)ccc3F)CC2)CC1 [Example 414, N-(4-{2-[4-(5-Chloro-2-fluorophenyl)piperazin-1-yl]ethyl}cyclohexyl)-4-cyanobutanamide]
152	COc1ccc(Cl)cc1N1CCN(CC[C@H]2CC[C@H](NC(=O)CCCC#N)CC2)CC1 [Example 415, N-(4-{2-[4-(5-Chloro-2-methoxyphenyl)piperazin-1-yl]ethyl}cyclohexyl)-4-cyanobutanamide]
145	COc1cccc(N2CCN(CC[C@H]3CC[C@H](NC(=O)CCCC#N)CC3)CC2)c1 [Example 416, 4-Cyano-N-(4-{2-[4-(3-methoxyphenyl)piperazin-1-yl]ethyl}cyclohexyl)butanamide]
160	COc1cccc(N2CCN(CC[C@H]3CC[C@H](NC(=O)C4=CCCC4)CC3)CC2)c1 [Example 417, Cyclopent-1-enecarboxylic acid (4-{2-[4-(3-methoxyphenyl)-piperazin-1-yl]ethyl}cyclohexyl) amide]
140	COc1cccc(N2CCN(CC[C@H]3CC[C@H](NC(=O)CCC#N)CC3)CC2)c1 [Example 418, 3-Cyano-N-(4-{2-[4-(3-methoxyphenyl)piperazin-1-yl]ethyl}cyclohexyl)propanamide]
165	COCCCC(=O)N[C@H]1CC[C@H](CCN2CCN(c3cccc(F)c3)CC2)CC1 [Example 419, N-(4-{2-[4-(3-Fluorophenyl)piperazin-1-yl]ethyl}cyclohexyl)-4-methoxybutanamide]
188	O=C(CC1C=CCC1)N[C@H]1CC[C@H](CCN2CCN(c3cccc(F)c3)CC2)CC1 (stereo partly drawn) [Example 420, 2-Cyclopent-2-enyl-N-(4-{2-[4-(3-fluorophenyl)piperazin-1-yl]ethyl}cyclohexyl)acetamide]
147	COc1cc(N2CCN(CC[C@H]3CC[C@H](NC(=O)CCCC#N)CC3)CC2)cc(C(F)(F)F)c1 [Example 421, 4-Cyano-N-(4-{2-[4-(3-methoxy-5-trifluoromethylphenyl)piperazin-1-yl]ethyl}cyclohexyl)butanamide]
135	CCc1ccccc1N1CCN(CC[C@H]2CC[C@H](NC(=O)CC(F)(F)F)CC2)CC1 [Example 422, N-(4-{2-[4-(2-Ethylphenyl)piperazin-1-yl]ethyl}cyclohexyl)-3,3,3-trifluoropropanamide]
